In assay [1] the test system is VEGF induced increases in intracellular calcium levels in HUVEC (human umbilical vein endothelial cells). Nature of the assay: VEGF Stimulated Ca++ signal assay (FLIPR). The format is cell-based. As to conditions: VEGF 5 ng/mL; for inhibition at 10 µM: 30 min pre-incubation; for IC50: 0.01 to 10.0 μM. How it is done:
VEGF Stimulated Ca^++ Signal in vitro
Automated FLIPR (Fluorometric Imaging Plate Reader) technology was used to screen for inhibitors of VEGF induced increases in intracellular calcium levels in fluorescent dye loaded endothelial cells. HUVEC (human umbilical vein endothelial cells) (Clonetics) were seeded in 96-well fibronectin coated black-walled plates overnight @ 37° C./5%CO2. Cells were loaded with calcium indicator Fluo-4 for 45 minutes at 37° C. Cells were washed 4 times (Original Cell Wash, Labsystems) to remove extracellular dye. Test compounds were reconstituted in 100% DMSO and added to the cells to give a final DMSO concentration of 0.1%. For screening, cells were pre-incubated with test agents for 30 minutes, at a single concentration (10 μM) or at concentrations ranging from 0.01 to 10.0 μM followed by VEGF stimulation (5 ng/mL). Changes in fluorescence at 516 nm were measured simultaneously in all 96 wells using a cooled CCD camera. Data were generated by determining max-min fluorescence levels for unstimulated, stimulated, and drug treated samples. IC50 values for test compounds were calculated from % inhibition of VEGF stimulated responses in the absence of inhibitor.

Assay [2] concerns the target T1, cytoplasmic domain of the human VEGF receptor (VEGFR-2) (Homo sapiens, UniProt P35968).
T1 construct: The cytoplasmic domain of the human VEGF receptor (VEGFR-2) was expressed as a Histidine-tagged fusion protein; His tag (Histidine-tagged fusion); made in house; host or cells: insect cells (engineered baculovirus)
As to the kind of experiment: KDR Assay. The format is biochemical. The following applies: His-VEGFR-2, 3.6 μM ATP, poly-Glu-Tyr (4:1). On the procedure:
The cytoplasmic domain of the human VEGF receptor (VEGFR-2) was expressed as a Histidine-tagged fusion protein following infection of insect cells using an engineered baculovirus. His-VEGFR-2 was purified to homogeneity, as determined by SDS-PAGE, using nickel resin chromatography. Kinase assays were performed in 96 well microtiter plates that were coated overnight with 30 μg of poly-Glu-Tyr (4:1) in 10 mM Phosphate Buffered Saline (PBS), pH 7.2-7.4. The plates were incubated with 1% BSA and then washed four times with PBS prior to starting the reaction. Reactions were carried out in 120 μL reaction volumes containing 3.6 μM ATP in kinase buffer (50 mM Hepes buffer pH 7.4, 20 mM MgCl2, 0.1 mM MnCl2 and 0.2 mM Na3VO4). Test compounds were reconstituted in 100% DMSO and added to the reaction to give a final DMSO concentration of 5%. Reactions were initiated by the addition 0.5 ng of purified protein. Following a ten minute incubation at 25° C., the reactions were washed four times with PBS containing 0.05% Tween-20. 100 μl of a monoclonal anti-phosphotyrosine antibody-peroxidase conjugate was diluted 1:10000 in PBS-Tween-20 and added to the wells for 30 minutes. Following four washes with PBS-Tween-20, 100 μl of 0-Phenylenediamine Dihydrochloride in Phosphate-citrate buffer, containing urea hydrogen peroxide, was added to the wells for 7 minutes as a colorimetric substrate for the peroxidase. The reaction was terminated by the addition of 100 μl of 2.5N H2SO4 to each well and read using a microplate ELISA reader set at 492 nm. IC50 values for compound inhibition were calculated directly from graphs of optical density (arbitrary units) versus compound concentration following subtraction of blank values.

As a reminder, the inhibition is the drop in the measured response relative to a control, in per cent. The term IC50 denotes the concentration at which inhibition is half-maximal.

Structures are written as SMILES. A value given as a limit tells only on which side of the number the result lay.

T1 sequence (P35968 786-1356 limits assumed): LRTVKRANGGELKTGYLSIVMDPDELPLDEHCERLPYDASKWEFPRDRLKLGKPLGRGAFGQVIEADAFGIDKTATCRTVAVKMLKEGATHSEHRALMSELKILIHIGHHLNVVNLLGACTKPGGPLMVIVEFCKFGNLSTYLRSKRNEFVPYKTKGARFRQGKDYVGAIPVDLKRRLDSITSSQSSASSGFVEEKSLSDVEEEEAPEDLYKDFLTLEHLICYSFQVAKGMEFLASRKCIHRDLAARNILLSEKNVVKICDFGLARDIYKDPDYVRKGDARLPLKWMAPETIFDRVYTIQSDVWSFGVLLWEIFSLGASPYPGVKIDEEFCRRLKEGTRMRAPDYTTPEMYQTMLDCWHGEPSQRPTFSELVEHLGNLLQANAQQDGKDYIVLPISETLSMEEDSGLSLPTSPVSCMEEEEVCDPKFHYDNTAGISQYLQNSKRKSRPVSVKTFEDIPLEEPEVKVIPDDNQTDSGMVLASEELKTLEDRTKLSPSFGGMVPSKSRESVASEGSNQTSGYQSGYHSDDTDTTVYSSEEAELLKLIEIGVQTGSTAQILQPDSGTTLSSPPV

As to `CC(C)(C)c1cc(NC=C2C(=O)Nc3ccccc32)n[nH]1` [Example 22, 3-[(5-tert-Butyl-1H-pyrazol-3-ylamino)-methylene]-1,3-dihydro-indol-2-one], in assay [1] (Homo sapiens), the inhibition at 10 µM is 98.3% and the half-inhibitory concentration (IC50) was found to be 6090 nM. This molecule also showed a concentration for half-maximal inhibition (IC50) in assay [2] of 5780 nM.

As for `Cc1noc(NC=C2C(=O)Nc3ccccc32)c1C` [Example 45, 3-[(3,4-Dimethyl-isoxazol-5-ylamino)-methylene]-1,3-dihydro-indol-2-one], in assay [1] (Homo sapiens), the inhibition at 10 µM turned out to be 84.9% and the 50% inhibitory concentration (IC50) amounted to 2550 nM. In addition, 980 nM corresponded to half-maximal inhibition in assay [2] (IC50).

`Cc1oc(C(C)(C)C)cc1-c1cc(NC=C2C(=O)Nc3ccccc32)[nH]n1` [Example 29, 3-{[5-(5-tert-Butyl-2-methyl-furan-3-yl)-2H-pyrazol-3-ylamino]-methylene}-1,3-dihydro-indol-2-one]: the IC50 in assay [1] is 580 nM; in assay [1] (Homo sapiens), at most 1000 nM; in assay [2], 260 nM. In addition, in assay [1] (Homo sapiens), the inhibition at 10 µM was 99.1%.

For `CC(C)(C)c1cc(NC=C2C(=O)Nc3ccccc32)no1` [Example 41, 3-[(5-tert-Butyl-isoxazol-3-ylamino)-methylene]-1,3-dihydro-indol-2-one], in assay [1] (Homo sapiens), the inhibition at 10 µM was 96.5% and the 50% inhibitory concentration (IC50) was determined as 10000 nM. For the same molecule, 780 nM corresponded to half-maximal inhibition in assay [2] (IC50).

As for `O=C1Nc2cc(F)ccc2C1=CNc1cc(-c2ccccc2)[nH]n1` [Example 51, 6-Fluoro-3-[(5-phenyl-1H-pyrazol-3-ylamino)-methylene]-1,3-dihydro-indol-2-one], the results for the IC50 in assay [1] (Homo sapiens) and in assay [2] were 2320 nM and 1210 nM, respectively.

For the molecule `Cc1cc(C)cc(-c2cc(NC=C3C(=O)Nc4ccccc43)[nH]n2)c1` [Example 32, 3-{[5-(3,5-Dimethyl-phenyl)2H-pyrazol-3-ylamino]-methylene}-1,3-dihydro-indol-2-one], in assay [1] (Homo sapiens), the inhibition at 10 µM was 46.1%. The same molecule returned a 50% inhibitory concentration (IC50) in assay [2] of 9540 nM.

For `O=C1Nc2ccccc2C1=CNc1cc(-c2ccccc2)[nH]n1` [Example 2, 3-[(5-Phenyl-H-pyrazol-3-ylamino)-methylene]-1,3-dihydro-indol-2-one], in assay [1] (Homo sapiens), the inhibition at 10 µM worked out at 90.5% and the half-maximal inhibitory concentration (IC50) came to 1330 nM. The molecule further yielded an IC50 in assay [2] of 580 nM.

As to `COc1ccc(Cc2cc(NC=C3C(=O)Nc4ccccc43)n[nH]2)cc1` [Example 5, 3-{[5-(4-Methoxy-benzyl)-1H-pyrazol-3-ylamino]-methylene}-1,3-dihydro-indol-2-one], the IC50 in assay [1] was 500 nM; in assay [1] (Homo sapiens), at most 1000 nM; in assay [2] it was 180 nM. For the same molecule, in assay [1] (Homo sapiens), the inhibition at 10 µM was 98%.

For `Cc1oc(C(C)(C)C)cc1-c1cc(NC=C2C(=O)Nc3cc(F)ccc32)[nH]n1` [Example 52, 3-{[5-(5-tert-Butyl-2-methyl-furan-3-yl)-2H-pyrazol-3-ylamino]-methylene}-6-fluoro-1,3-dihydro-indol-2-one], the values for the IC50 in assay [1] (Homo sapiens) and in assay [2] were 3400 nM and 82300 nM, respectively.

For `COc1ccccc1-c1cc(NC=C2C(=O)Nc3ccccc32)[nH]n1` [Example 37, 3-{[5-(2-Methoxy-phenyl)-2H-pyrazol-3-ylamino]-methylene}-1,3-dihydro-indol-2-one], the inhibition at 10 µM in assay [1] (Homo sapiens) is 13.6%. In assay [2], the IC50 turned out to be 12700 nM.

For the molecule `Cc1ccc(-c2cc(NC=C3C(=O)Nc4ccccc43)n[nH]2)cc1` [Example 3, 3-[(5-P-Tolyl-1H-pyrazol-3-ylamino)-methylene]-1,3-dihydro-indol-2-one], in assay [1] (Homo sapiens), the inhibition at 10 µM was found to be 74% and the half-maximal inhibitory concentration (IC50) was determined as 2440 nM. For the same molecule, the concentration for half-maximal inhibition (IC50) in assay [2] is 840 nM.

As to `CN(C)c1ccc(-c2cc(NC=C3C(=O)Nc4ccccc43)[nH]n2)cc1` [Example 35, 3-{[5-(4-Dimethylamino-phenyl)-2H-pyrazol-3-ylamino]-methylene}-1,3-dihydro-indol-2-one], in assay [1] (Homo sapiens), the inhibition at 10 µM amounted to 93% and the IC50 was 3060 nM. 3490 nM corresponded to half-maximal inhibition in assay [2] (IC50).

As for `O=C1Nc2ccc(Cl)cc2C1=CNc1cc[nH]n1` [Example 9, 5-Chloro-3-[(1H-pyrazol-3-ylamino)-methylene]-1,3-dihydro-indol-2-one], in assay [1] (Homo sapiens), the inhibition at 10 µM is 90%. The half-maximal inhibitory concentration (IC50) in assay [1] (Homo sapiens) turned out to be 6140 nM; in assay [2], 1130 nM.

Turning to `Cc1oc(C(C)(C)C)cc1-c1cc(NC=C2C(=O)Nc3ccccc32)n(C)n1` [Example 47, 3-{[5-(5tert-Butyl-2-methyl-furan-3-yl)-2-methyl-2H-pyrazol-3-ylamino]-methylene}-1,3-dihydro-indol-2-one], in assay [1] (Homo sapiens), the inhibition at 10 µM amounted to 79.7% and the IC50 was found to be 5920 nM. In addition, half-maximal inhibition in assay [2] (IC50) was put at 2510 nM.

Turning to `O=C1Nc2ccc(Cl)cc2C1=CNc1cc(-c2ccco2)[nH]n1` [Example 10, 3-[(5-Furan-2-yl-1H-pyrazol-3-ylamino)-methylene]-5-chloro-1,3-dihydro-indol-2-one], in assay [1] (Homo sapiens), the inhibition at 10 µM is 76% and the half-inhibitory concentration (IC50) came out at 3230 nM. In addition, the IC50 in assay [2] was 1030 nM.

With `Cc1oc(C(C)(C)C)cc1-c1cc(NC=C2C(=O)Nc3ccc(F)cc32)[nH]n1` [Example 28, 3-{[5-(5-tert-Butyl-2-methyl-furan-3-yl)-2H-pyrazol-3-ylamino]-methylene}-5-fluoro-1,3-dihydro-indol-2-one], the inhibition at 10 µM in assay [1] (Homo sapiens) came to 43.9%. For the same molecule, in assay [2], the half-inhibitory concentration (IC50) was 15700 nM.

Regarding `Cc1cc(NC=C2C(=O)Nc3cc(F)ccc32)no1` [Example 48, 6-Fluoro-3-[(5-methyl-isoxazol-3-ylamino)-methylene]-1,3-dihydro-indol-2-one], the IC50 in assay [1] (Homo sapiens) was found to be 960 nM; in assay [2] it was 1390 nM.

In the case of `COc1cccc(-c2cc(NC=C3C(=O)Nc4ccccc43)[nH]n2)c1` [Example 33, 3-{[5-(3-Methoxy-phenyl)-2H-pyrazol-3-ylamino]-methylene}-1,3-dihydro-indol-2-one], the inhibition at 10 µM in assay [1] (Homo sapiens) stood at 92.9%. Besides, the values for the IC50 in assay [1] (Homo sapiens) and in assay [2] were 4400 nM and 1430 nM, respectively.

For the molecule `Cc1cccc2c1C(=CNc1cc(-c3ccco3)[nH]n1)C(=O)N2` [Example 7, 3-[(5-Furan-2-yl-1H-pyrazol-3-ylamino)-methylene]-4-methyl-1,3-dihydro-indol-2-one], the 50% inhibitory concentration (IC50) in assay [1] is 920 nM; in assay [1] (Homo sapiens) it was at most 1000 nM; in assay [2], 540 nM. Moreover, the inhibition at 10 µM in assay [1] (Homo sapiens) worked out at 98.3%.

As to `O=C1Nc2cc(F)ccc2C1=CNc1cc[nH]n1` [Example 53, 6-Fluoro-3-[(1H-pyrazol-3-ylamino)-methylene]-1,3-dihydro-indol-2-one], the IC50 amounted to 1380 nM in assay [1] (Homo sapiens) and 2220 nM in assay [2].

For `Cc1cccc2c1C(=CNc1cc(-c3ccccc3)[nH]n1)C(=O)N2` [Example 8, 4-Methyl-3-[(5-phenyl-1H-pyrazol-3-ylamino)-methylene]-1,3-dihydro-indol-2-one], in assay [1] (Homo sapiens), the inhibition at 10 µM was 64.5% and the IC50 was determined as 3170 nM. Half-maximal inhibition in assay [2] (IC50) required 970 nM.

The record behind these values is US6559173B1, “3-(heteroarylamino)methylene-1,3-dihydro-2H-indol-2-ones as kinase inhibitors” (Allergan, Inc., priority 2001, dated 2003).
